The source of these data is patent US20150374709A1, “TETRA-SUBSTITUTED NDGA DERIVATIVES VIA ETHER BONDS AND CARBAMATE BONDS AND THEIR SYNTHESIS AND PHARMACEUTICAL USE” (ERIMOS PHARMACEUTICALS LLC, priority 2006, published 2015).

The subject of experiment [1] is HeLa (cervical adenocarcinoma). The experiment can be described thus: MTS cell viability assay, HeLa. The class given is cell-based. Conditions: Homo sapiens, HeLa, MTS assay; read-out: HeLa IC50. The text has this:
(§1) Studies performed regarding cytotoxicity included the well-known MTS, Trypan Blue and MTT protocols. The MTS studies were done using the CellTiter 96®AQueous One Solution Cell Proliferation Assay (Promega Corporation, Madison, Wis. USA). Metabolically active, namely viable, cells turn MTS, a tetrazolium compound (3-(4,5-dimethylthiazol-2-yl)-5-(3-carboxymethoxyphenyl)-2-(4-sulfophenyl)-2H-tetrazolium, inner salt) into colored formazan, which is soluble in tissue culture medium. The measurement of the absorbance of the formazan is read at 490 nm. The ready to use reagent is added directly to the cells in media in 96-well plates, incubated 1-4 hours and the results are recorded by the plate reader. The IC50 is estimated by graphing the gathered data. The IC50 is the concentration of the tested material that inhibits 50% of growth or viability of the tested material compared to a control.
(§2) Three cell lines obtained from ATCC and maintained as directed by ATCC were tested: HeLa (cervical adenocarcinoma), A549 (lung carcinoma), and COS-7 (SV40 transformed monkey kidney). Studies of these cell lines are considered to be indicative of the effect of tested substances on mammalian, including human, diseases.
(§3) All compounds were dissolved in DMSO and DMSO is used as the placebo. The samples were first dissolved into 10 mM dilutions in DMSO and then diluted further to 5, 1, 0.5, 0.1, 0.05, and 0.01 mM solutions. These solutions were added to the media at a 1% concentration (1 μl to 100 μl media) to treat the cells with 100, 50, 10, 5, 1, 0.5, and 0.1 μM of the compound. […] Solutions were checked before use for precipitation, especially the 10 mM solutions. If there was precipitation, they were warmed 65° C. and added to warmed media.
(§4) Wells on a 96-well plate were seeded with 1.5-8×10^4 cells in 100 μl media and incubated overnight. The outside wells of the plate were filled with 200 μl sterile, deionized (DI) water to curb media evaporation. After 24 hours, test chemicals were prepared in media at a concentration of 1% media volume. The test sample media were added, mixing with pipette before adding 100 μl per well. Media was added to the “Media Only” wells. The well plate and its contents were incubated for 24-72 hours, depending on the study conducted. On the thy of the MTS assay, the MTS reagent was removed from the refrigerator and brought to room temperature. Using the multichannel pipette, 20 μl of the MTS reagent was added to each well and incubated for one to four hours. The plate was read at 490 nm with a reference wavelength of 690 nm after one hour in the incubator thereafter until the blank wells were at about 0.2 OD. The results were then scanned into a Microsoft® Excel® template designed to perform all necessary calculations whim data are entered. The data were checked for statistical errors; data points that are within 10% of the mean of the data points for that group were included. The average of the blanks (“Media Only”) were subtracted and the data were inserted into a chart that represents growth response, treated/untreated.
In general terms: Formazan colour is commonly taken as a measure of viable cells.

Experiment [2] relates to TAT-mediated transactivation of HIV transcription (HIV-1 LTR promoter). The experiment can be described thus: SEAP assay of TAT-mediated transactivation (antiviral activity). In kind it is cell-based, human immunodeficiency virus (HIV). Conditions: Human immunodeficiency virus 1, COS-7, 48 h, read-out: SEAP EC50. The procedure:
Antiviral activity is determined using a SEAP (SEcreted Alkaline Phosphatase) assay, in which cells are co-transfected with SEAP and TAT plasmids. TAT is a transactivator, human immunodeficiency virus (HIV) gene expression and is one of the two or more necessary viral regulatory factors (TAT and REV) for HIV gene expression. TAT acts iv binding to the TAR RNA element and activating transcription from the long terminal repeat (LTR) promoter. […] Previous studies have shown that TAT mediates reduction of antibody-dependent T cell proliferation, contributing substantially to the failure of the immune response. TAT also directly stimulates Kaposi's cell growth.
Since TAT has no apparent cellular homologs, this strong positive regulator has become an attractive target for the development of anti-AIDS drugs. In contrast to currently available HIV reverse transcriptase inhibitors (AZT, DDI) or potential protease inhibitors that prevent new rounds of infection, an inhibitor which suppresses viral gene TAT regulated expression of integrated proviral DNA will arrest the virus at an early stage (Hsu et al., Science 254:1799-1802, 1991). Efforts aimed at the elucidation of factors which control gene expression at transcriptional and post-transcriptional levels in host eukaryotes have recently made possible quantitative assessment of TAT function (Sim, Ann. N.Y. Acad. Sci. 616: 64-70, 1990). To screen for inhibitors for TAT regulated transactivation (TAT-TRS), the SEAP reporter gene is put under the control of HIV-1 LTR promoter in the plasmid pBC12/HIV/SEAP. The TAT-coded activity is supplied by a second plasmid construct pBC12/CMV/t2. Transient co-transfection of COS-7 cells with these two plasmids leads to secretion of alkaline phosphatase into the culture medium which is analyzed by a simple colorimetric assay (Berger et al., Gene 66: 1-10, 1988). […]
In the SEAP assay, an inhibitor should cause reduction of SEAP reporter gene expression via transactivation of the HIV-1 LTR promoter by TAT protein (TAT-TRS). […] SEAP is detected colorimetrically by the para-nitrophenyl phosphate substrate at 405 nm. […] The cells are analyzed by the MTT assay to compare cytotoxicity to SEAP inhibition. […]
COS-7 (green monkey kidney) cells were co-transfected using Fugene 6 reagent (Roche Applied Science, Cat. No. 11815091001, Indianapolis, Ind., USA) with two plasmids: pHIVSEAP (SEAP expression vector under the control of the HIV LTR promoter) and pCTAT (HIV TAT transcription factor expression vector under the control of a CMV (cytomegalovirus) promoter). After test compound treatment for 48 hours, samples were analyzed for […] at 405 nm after addition of the p-nitrophenyl phosphate substrate. The percentage of SEAP activity inhibition was calculated in relation to the placebo control.

A further experiment concerns A549 (lung carcinoma). Nature of the experiment: MTS cell viability assay, A549. The class given is cell-based. Conditions: Homo sapiens, A549; MTS assay; read-out: A549 IC50.
Excerpt: as §1, §2, §3, §4

A further experiment relates to COS-7 cells. The experiment can be described thus: MTT cytotoxicity assay in COS-7 cells (run with SEAP). The class given is cell-based, green monkey. Conditions: Chlorocebus sabaeus, COS-7 test cells of the SEAP assay.
A further experiment has as its system MCP-1. Nature of the experiment: MCP-1 protein production in TNF-α-treated primary human keratinocytes. In kind it is cell-based. To be noted: TNF-α-treated PHK; read-out: MCP-1 IC50. How it is done: Anti-inflammatory activity was determined based on the effect of tested compounds on primary human keratinocytes (PHKs). PHKs play an important role in inflammatory processes, synthesizing a number of cytokines, adhesion molecules and growth factors. Studies were conducted to determine whether tested compounds could inhibit keratinocytes to prevent or reduce production of interferon gamma (IFN-γ), interleukin-8 (IL-8), tumor necrosis factor alpha (TNF-α), granulocyte/macrophage colony-stimulating factor (GM-CSF), intercellular adhesion molecule-1 (ICAM-1, also known as CD54) and monocyte chemotactic protein-1 (MCP-1). PHKs are first treated with TNF-α to induce a pro-inflammatory state and release of pro-inflammatory cytokines. Specific cytokines are then assayed following manufacturer's instructions using R&D Systems. Inc.'s protein assays (Quantikine ELISA kits; Catalog Nos. DCP00 for MCP-1 kit, DCM00 for GM-CSF kit, and DIF50 for IFN-γ).
Anti-inflammatory activity of several of the compounds of the previously described working examples was determined based on the effect of tested compounds on primary human keratinocytes (PHKs) as described above and following the manufacturer's instructions for the various kits used in the studies. While these studies more typically are used mostly for anti-inflammatory investigations, they can also apply to vascular diseases, since the results in keratinocytes may be extrapolated to vascular endothelium.
Only MCP-1 data with PHKs is dose-dependent, so an IC50 for MCP-1 can be calculated, but not for the other cytokines.

Usually IC50 stands for the concentration that gives 50% inhibition. By EC50 is commonly meant the concentration that produces a half-maximal response.

Procedure for COS-7 cells: The MTT assay is a colorimetric method for determining the number of viable cells. Metabolically active cells turn the MIT reagent, (3-(4,5-dimethylthiazol-2-yl)-2,5-diphenyltetrazolium bromide, into purple-colored formazan crystals that are solubilized in dimethyl sulfoxide (DMSO). The MTT reagent is added to MTT (colorless) media. The media is added to the cells and they are incubated for 4 hours. DMSO is added to the cells and mixed. The colored solutions are then read at 540 nm and corrected at 630 nm. The IC50 is estimated by graphing the gathered data.
The cells are analyzed by the MTT assay to compare cytotoxicity to SEAP inhibition. The goal is for the drug to inhibit SEAP without being too toxic.
The MTT assay measures cellular-proliferation and is used to verify that the levels of SEAP activity are not solely due to cytotoxicity. These assays was used in screening for potential drug compound leads as antiviral agents, and particularly, anti-HIV candidates.

Take `C[C@H](Cc1ccc(OCCOCCO)c(OCCOCCO)c1)[C@@H](C)Cc1ccc(OCCOCCO)c(OCCOCCO)c1` [Compound J, 1,4-bis{3,4-bis[2-(2-hydroxyethoxy)ethoxyl]phenyl}-2,3-dimethyl-(2R,3S)-butane]: the IC50 in experiment [1] is more than 100 µM; with A549 (lung carcinoma) it was 80 to 90 µM; with COS-7 cells, 80 to 90 µM; with MCP-1 it was 70 µM. Besides, the EC50 in experiment [2] lay in the range of 80 to 90 µM.
